Reference: patent EP4603105A1, “PHARMACEUTICAL COMPOSITION CONTAINING CYCLIC COMPOUND HAVING SELECTIVE KRAS INHIBITORY EFFECT AGAINST HRAS AND NRAS” (CHUGAI SEIYAKU KABUSHIKI KAISHA, priority 2022, dated 2024)
Where a SMILES comes first, the peptide text is derived from it. Bridges are numbered along the chain shown (N, C = ends). [ ]: non-standard residue; d: D form. The star is where a group is joined. hPhe(3,5-F2-4-CF3) = N[C@@H](CCc1cc(F)c(C(F)(F)F)c(F)c1)C(=O)O; hPhe(3-Cl-4-CF3) = N[C@@H](CCc1ccc(C(F)(F)F)c(Cl)c1)C(=O)O; NPrPhe(4-CF3) = CCCN[C@@H](Cc1ccc(C(F)(F)F)cc1)C(=O)O; NMeAbu(4,4,4-F3) = CN[C@@H](CC(F)(F)F)C(=O)O; NMeGly(cPent) = CN[C@H](C(=O)O)C1CCCC1; Hyp = O=C(O)[C@@H]1C[C@@H](O)CN1; NMeD = CN[C@@H](CC(=O)O)C(=O)O; NMeL = CN[C@@H](CC(C)C)C(=O)O; Morpholide = C1CN(*)CCO1; Ac5c = NC1(C(=O)O)CCCC1; Aze = O=C(O)[C@@H]1CCN1; Sar = CNCC(=O)O

Experiments:
[1] = tested on: human lung cancer strain NCI-H441; format: cell-based
Outline: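 Step one: dispense the test compound in serial DMSO dilutions. Step three: add the reagent and measure […].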

[2] = molecular target: GDP-bound NRAS wild-type protein (Homo sapiens, UniProt P01111); experiment: Binding to NRAS by surface plasmon resonance (SPR), KD and KD ratio to KRAS
Chain of GDP-bound NRAS wild-type protein (P01111 whole entry): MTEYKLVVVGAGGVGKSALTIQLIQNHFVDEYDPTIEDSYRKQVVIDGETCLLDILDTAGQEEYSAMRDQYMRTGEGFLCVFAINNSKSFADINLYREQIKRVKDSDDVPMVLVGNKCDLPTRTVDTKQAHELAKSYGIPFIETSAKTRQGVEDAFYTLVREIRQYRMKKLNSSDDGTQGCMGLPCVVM
Outline: (§1)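 Running buffer contained 10 µM GDP and 10 mM MgCl2 to keep RAS in the GDP state, with 4% DMSO at pH 7.4. Compounds were flowed at 100 µL/min in 75 s steps of rising concentration over captured biotin-Avi RAS at 30°C. Sensorgrams were fitted 1:1 for KD.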

[3] = molecular target: HRAS wild-type protein (Homo sapiens, UniProt P01112); experiment: Binding to HRAS by surface plasmon resonance (SPR), KD and KD ratio to KRAS
Chain of HRAS wild-type protein (P01112 whole entry): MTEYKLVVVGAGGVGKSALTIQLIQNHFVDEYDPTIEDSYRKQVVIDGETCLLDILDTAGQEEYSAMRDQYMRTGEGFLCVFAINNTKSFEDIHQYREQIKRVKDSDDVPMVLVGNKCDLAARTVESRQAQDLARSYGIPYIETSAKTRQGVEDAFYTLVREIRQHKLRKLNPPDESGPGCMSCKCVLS
Outline: as §1

[4] = ratio of the KD value with respect to GDP-bound NRAS wild-type protein to the KD value with respect to KRAS
[5] = ratio of the KD value with respect to HRAS wild-type protein to the KD value with respect to KRAS
[6] = ratio of KD for GDP-bound NRAS wild-type protein to KD for KRAS
[7] = ratio of KD for HRAS wild-type protein to KD for KRAS

| IC50 [1] [nM] | Compound | NRAS /KRAS [2, 4] | HRAS /KRAS [3, 5] | NRAS /KRAS [2, 6] | HRAS /KRAS [3, 7] | NRAS /KRAS ([2]; ratio of KD value for GDP-bound NRAS wild-type protein to KD value for KRAS (SPR)) | HRAS /KRAS ([3]; ratio of KD value for HRAS wild-type protein to KD value for KRAS (SPR)) |
| --- | --- | --- | --- | --- | --- | --- | --- |
| 12.5 | CCC[C@H]1C(=O)N[C@@H]([C@@H](C)CC)C(=O)N2CCC[C@H]2C(=O)N(C)[C@H]2C/C=C\CCN(C2=O)[C@@H](Cc2ccc(C(F)(F)F)cc2)C(=O)N(C)CC(=O)N[C@@H](CCc2ccc(C(F)(F)F)c(OC)c2)C(=O)N2C[C@H](OCC)C[C@H]2C(=O)N(C)C2(CCC2)C(=O)N(C)[C@@H](C(CC)CC)C(=O)N(C)[C@H](C(=O)N(C)C)CC(=O)N1C [PP2317] | A (a compound having 10 or more and less than 20 is denoted as A) | A (a compound having 10 or more and less than 20 is denoted as A) |  |  |  |  |
| 0.9 | CCCN1C(=O)CN(C)C(=O)CNC(=O)[C@H]([C@@H](C)CC)NC(=O)[C@H](CC(C)C)N(C)C(=O)C[C@@H](C(=O)N2CCOCC2)N(C)C(=O)[C@H](C2CCCC2)N(C)C(=O)C2(CCCC2)NC(=O)[C@@H]2C[C@@H](OCC)CN2C(=O)[C@H](CCc2ccc(C(F)(F)F)c(Cl)c2)NC(=O)CN(C)C(=O)[C@@H]1Cc1ccc(C(F)(F)F)cc1 [PP0396] ([NMeL]IG[Sar][NPrPhe(4-CF3)][Sar][hPhe(3-Cl-4-CF3)][Hyp](Et)[Ac5c][NMeGly(cPent)][NMeD]-Morpholide; lactam N-11) | B (a compound having 3 or more and less than 10 is denoted as B) | C (A compound having a KD ratio of 0.1 or more and less than 3 is denoted as C) |  |  |  |  |
| 20.9 | CCC[C@H]1C(=O)N[C@@H]([C@@H](C)CC)C(=O)N(C)CC(=O)N(C)[C@H]2C/C=C\CCN(C2=O)[C@@H](Cc2ccc(C(F)(F)F)cc2)C(=O)N(C)CC(=O)N[C@@H](CCc2ccc3sc(C)c(C)c3c2)C(=O)N2C[C@H](OCC)C[C@H]2C(=O)NC2(CC(C)(C)C2)C(=O)N(C)[C@@H](C2CCCC2)C(=O)N(C)[C@H](C(=O)N(C)C)CC(=O)N1C [PP2889] |  |  | A (a compound having 10 or more and less than 20 is denoted as A) | A (a compound having 10 or more and less than 20 is denoted as A) |  |  |

Continued, molecule first:

| Compound | IC50 [1] [nM] | NRAS /KRAS [2, 4] | HRAS /KRAS [3, 5] | NRAS /KRAS [2, 6] | HRAS /KRAS [3, 7] | NRAS /KRAS ([2]; ratio of KD value for GDP-bound NRAS wild-type protein to KD value for KRAS (SPR)) | HRAS /KRAS ([3]; ratio of KD value for HRAS wild-type protein to KD value for KRAS (SPR)) |
| --- | --- | --- | --- | --- | --- | --- | --- |
| CCC(CC)[C@@H]1NC(=O)[C@H](CC(C)C)N(C)C(=O)C[C@@H](C(=O)N2CCOCC2)N(C)C(=O)[C@H](C2CCCC2)N(C)C(=O)C2(CCCC2)NC(=O)[C@@H]2CCCN2C(=O)[C@H](CCc2cc(F)c(C(F)(F)F)c(F)c2)NC(=O)CN(C)C(=O)[C@H](Cc2ccc(C(F)(F)F)cc2)N2CCCC[C@@H](C2=O)N(C)C(=O)CN(C)C1=O [PP0597] | 18.2 | B (a compound having 3 or more and less than 10 is denoted as B) | B (a compound having 3 or more and less than 10 is denoted as B) |  |  |  |  |
| CCCN1C(=O)CN(C)C(=O)[C@@H]2CCN2C(=O)[C@H]([C@@H](C)CC)NC(=O)[C@H](CC(C)C)N(C)C(=O)C[C@@H](C(=O)N2CCOCC2)N(C)C(=O)[C@H](CC(F)(F)F)N(C)C(=O)C2(CCCC2)NC(=O)[C@@H]2CCCN2C(=O)[C@H](CCc2cc(F)c(C(F)(F)F)c(F)c2)NC(=O)CN(C)C(=O)[C@@H]1Cc1ccc(C(F)(F)F)cc1 [PP0784] ([NMeL]I[Aze][Sar][NPrPhe(4-CF3)][Sar][hPhe(3,5-F2-4-CF3)]P[Ac5c][NMeAbu(4,4,4-F3)][NMeD]-Morpholide; lactam N-11) | 447 |  |  | B (a compound having 3 or more and less than 10 is denoted as B) | B (a compound having 3 or more and less than 10 is denoted as B) |  |  |
| CCO[C@@H]1C[C@H]2C(=O)NC3(CCC3)C(=O)N(C)[C@@H](C3CCCC3)C(=O)N(C)[C@H](C(=O)N(C)C)CC(=O)N(C)[C@@H](CC)C(=O)N[C@@H]([C@@H](C)CC)C(=O)N(C)CC(=O)N(C)[C@H]3C[C@H]4C[C@H]4CN(C3=O)[C@@H](Cc3ccc(C(F)(F)F)cc3)C(=O)N(C)CC(=O)N[C@@H](CCc3cc(F)c(C(F)(F)F)c(F)c3)C(=O)N2C1 [PP0830] | 3.4 |  |  | C (A compound having a KD ratio of 0.1 or more and less than 3 is denoted as C) | C (A compound having a KD ratio of 0.1 or more and less than 3 is denoted as C) |  |  |
| CCO[C@@H]1C[C@H]2C(=O)NC3(CC(C)(C)C3)C(=O)N(C)[C@@H](C3CCCC3)C(=O)N(C)[C@H](C(=O)N(C)C)CC(=O)N(C)[C@@H](CC)C(=O)N[C@@H]([C@@H](C)CC)C(=O)N(C)CC(=O)N(C)[C@H]3C/C=C\CCN(C3=O)[C@@H](Cc3ccc(C)cc3)C(=O)N(C)CC(=O)N[C@@H](CCc3ccc(C(F)(F)F)c(OC)c3)C(=O)N2C1 [PP1873] | 8.5 |  |  |  |  | A (a compound having 10 or more and less than 20 is denoted as A) | B (a compound having 3 or more and less than 10 is denoted as B) |
